Laboratory results from PubChem BioAssay AID328 (DTP/NCI, 2004).
Where “and” joins values, the source holds several entries; their conditions need not be identical. Equal values may be shown once. Inconclusive results and toxic doses are left out. Non-standard residues stand in square brackets, D forms with d. Residues, ends and D or L forms follow the SMILES beside them. ξ: configuration not given here. *: point of attachment. ξF = NC(Cc1ccccc1)C(=O)O; ClAc = O=C(CCl)*

System: BDF1 mice, P388 leukemia ip, median survival T/C
Assay: NCI In Vivo Anticancer Drug Screen. Data for tumor model P388 Leukemia (intraperitoneal) in B6D2F1 (BDF1) mice
Conditions: endpoint: median survival time, higher = longer survival
Method in brief: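 Reported as T/C, where T is the survival measurement in dosed animals and C the same measurement in vehicle controls.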

[1] = dose: 100.0 mg/kg/injection, schedule: Q04DX003 (ip), vehicle: Klucel (hydroxypropylcellulose) (HPC)
[2] = dose: 200.0 mg/kg/injection, schedule: Q04DX003 (ip), vehicle: Klucel (hydroxypropylcellulose) (HPC)
[3] = dose: 50.0 mg/kg/injection, schedule: Q01DX009 (ip), vehicle: saline
[4] = dose: 100.0 mg/kg/injection, schedule: Q01DX009 (ip), vehicle: saline
[5] = dose: 3.12 mg/kg/injection, schedule: Q01DX009 (ip), vehicle: Klucel (hydroxypropylcellulose) (HPC)
[6] = dose: 6.25 mg/kg/injection, schedule: Q01DX009 (ip), vehicle: Klucel (hydroxypropylcellulose) (HPC)
[7] = dose: 12.5 mg/kg/injection, schedule: Q01DX009 (ip), vehicle: Klucel (hydroxypropylcellulose) (HPC)
[8] = dose: 100.0 mg/kg/injection, schedule: Q04DX003 (ip), vehicle: saline sonified
[9] = dose: 200.0 mg/kg/injection, schedule: Q04DX003 (ip), vehicle: saline sonified
[10] = dose: 100.0 mg/kg/injection, schedule: Q04DX002 (ip), vehicle: saline with Tween-80
[11] = dose: 100.0 mg/kg/injection, schedule: Q01DX009 (ip), vehicle: saline with Tween-80

SMILES: CNC(=O)c1ccc(NC(=O)Nc2cccc(C3=NCCN3)c2)cc1NC(=O)Nc1cccc(C2=NCCN2)c1
- T/C (dose: 30.0 mg/kg/injection, schedule: Q01DX009 (ip), vehicle: saline with Tween-80): 162 % of control

SMILES: COC(=O)c1ccc(C(=O)OC)c(=O)[nH]1
- T/C (dose: 100.0 mg/kg/injection, schedule: Q01DX009 (ip), vehicle: Klucel (hydroxypropylcellulose) (HPC)): 100 % of control
- T/C [1]: 104 % of control
- T/C (dose: 200.0 mg/kg/injection, schedule: Q01DX009 (ip), vehicle: Klucel (hydroxypropylcellulose) (HPC)): 95 % of control
- T/C [2]: 104 % of control
- T/C (dose: 400.0 mg/kg/injection, schedule: Q01DX009 (ip), vehicle: Klucel (hydroxypropylcellulose) (HPC)): 91 % of control
- T/C (dose: 400.0 mg/kg/injection, schedule: Q04DX003 (ip), vehicle: Klucel (hydroxypropylcellulose) (HPC)): 104 % of control

SMILES: OCc1cncc(F)c1
- T/C [3]: 103 % of control
- T/C [4]: 103 % of control
- T/C (dose: 200.0 mg/kg/injection, schedule: Q01DX009 (ip), vehicle: saline): 103 % of control

SMILES: O=C(CCl)NCC(=O)NC(Cc1ccccc1)C(=O)O (centres undefined) (ClAc-Gly-[ξF]-OH)
- T/C (dose: 50.0 mg/kg/injection, schedule: Q04DX003 (ip), vehicle: saline with Tween-80): 109 % of control
- T/C (dose: 100.0 mg/kg/injection, schedule: Q04DX003 (ip), vehicle: saline with Tween-80): 109 % of control
- T/C (dose: 200.0 mg/kg/injection, schedule: Q04DX003 (ip), vehicle: saline with Tween-80): 90 % of control

SMILES: COC(=O)C1C(c2ccccc2)=NC(c2ccccc2)C1C(=O)OC (centres undefined)
- T/C (dose: 100.0 mg/kg/injection, schedule: Q01DX001 (ip), vehicle: saline with Tween-80): 101 % of control
- T/C (dose: 200.0 mg/kg/injection, schedule: Q01DX001 (ip), vehicle: saline with Tween-80): 96 % of control
- T/C (dose: 400.0 mg/kg/injection, schedule: Q01DX001 (ip), vehicle: saline with Tween-80): 109 % of control

SMILES: Cc1ccc(S(=O)(=O)Oc2cc([N+](=O)[O-])ccc2N)cc1
- T/C (dose: 100.0 mg/kg/injection, schedule: Q01DX001 (ip), vehicle: saline): 109 % of control
- T/C (dose: 200.0 mg/kg/injection, schedule: Q01DX001 (ip), vehicle: saline): 100 % of control
- T/C (dose: 400.0 mg/kg/injection, schedule: Q01DX001 (ip), vehicle: saline): 104 % of control

SMILES: CC(=O)Oc1ccc(N2C(=O)C=CC2=O)cc1
- T/C (dose: 1.56 mg/kg/injection, schedule: Q04DX003 (ip), vehicle: Klucel (hydroxypropylcellulose) (HPC)): 100 % of control
- T/C [5]: 104 % of control
- T/C (dose: 3.12 mg/kg/injection, schedule: Q04DX003 (ip), vehicle: Klucel (hydroxypropylcellulose) (HPC)): 100 % of control
- T/C [6]: 104 % of control
- T/C (dose: 6.25 mg/kg/injection, schedule: Q04DX003 (ip), vehicle: Klucel (hydroxypropylcellulose) (HPC)): 100 % of control
- T/C (dose: 9.2 mg/kg/injection, schedule: Q04DX003 (ip), vehicle: Klucel (hydroxypropylcellulose) (HPC)): 90 % of control
- T/C [7]: 109 % of control
- T/C (dose: 14.0 mg/kg/injection, schedule: Q04DX003 (ip), vehicle: Klucel (hydroxypropylcellulose) (HPC)): 95 % of control

SMILES: OCC12COCN1COC2
- T/C [3]: 104 % of control
- T/C [4]: 104 % of control

SMILES: C/C(=C\c1ccc(C)cc1)[N+](=O)[O-]
- T/C (dose: 17.5 mg/kg/injection, schedule: Q01DX010 (ip), vehicle: saline): 95 % of control
- T/C (dose: 35.0 mg/kg/injection, schedule: Q01DX010 (ip), vehicle: saline): 86 % of control
- T/C (dose: 70.0 mg/kg/injection, schedule: Q01DX010 (ip), vehicle: saline): 90 % of control

SMILES: FC(F)(F)c1nnn[n-]1.[Au+].c1ccc([PH+](c2ccccc2)c2ccccc2)cc1
- T/C (dose: 25.0 mg/kg/injection, schedule: Q01DX001 (ip), vehicle: saline with Tween-80): 100 % of control
- T/C (dose: 50.0 mg/kg/injection, schedule: Q01DX001 (ip), vehicle: saline with Tween-80): 102 % of control

SMILES: O=[N+]([O-])c1ccc(S(=O)(=O)OCc2cccc(OS(=O)(=O)c3ccc([N+](=O)[O-])cc3)c2)cc1
- T/C [8]: 105 % of control
- T/C [9]: 116 % of control
- T/C (dose: 400.0 mg/kg/injection, schedule: Q04DX003 (ip), vehicle: saline sonified): 105 % of control

SMILES: Clc1ccc2nc(CI)c(CI)nc2c1
- T/C [5]: 100 % of control
- T/C [6]: 100 % of control and 122 % of control
- T/C (dose: 6.25 mg/kg/injection, schedule: Q04DX003 (ip), vehicle: saline): 108 % of control
- T/C [7]: 88 % of control and 100 % of control
- T/C (dose: 12.5 mg/kg/injection, schedule: Q04DX003 (ip), vehicle: saline): 108 % of control
- T/C (dose: 22.0 mg/kg/injection, schedule: Q01DX009 (ip), vehicle: saline with Tween-80): 122 % of control
- T/C (dose: 25.0 mg/kg/injection, schedule: Q01DX009 (ip), vehicle: Klucel (hydroxypropylcellulose) (HPC)): 95 % of control
- T/C (dose: 25.0 mg/kg/injection, schedule: Q04DX003 (ip), vehicle: saline): 104 % of control
- T/C (dose: 33.0 mg/kg/injection, schedule: Q01DX009 (ip), vehicle: saline with Tween-80): 113 % of control

SMILES: CC(=O)CC(C)=O.CC(=O)CC(C)=O.Cc1c[nH]cn1.O=N[O-].[Co]
- T/C [10]: 107 % of control
- T/C (dose: 200.0 mg/kg/injection, schedule: Q04DX002 (ip), vehicle: saline with Tween-80): 124 % of control

SMILES: CCOC(=O)c1oc2ccccc2c1CN
- T/C (dose: 50.0 mg/kg/injection, schedule: Q01DX009 (ip), vehicle: saline with Tween-80): 107 % of control
- T/C [11]: 107 % of control

SMILES: CC(=O)CC(=O)NC1CCCCC1
- T/C [11]: 100 % of control
- T/C (dose: 200.0 mg/kg/injection, schedule: Q01DX009 (ip), vehicle: saline with Tween-80): 100 % of control
- T/C (dose: 400.0 mg/kg/injection, schedule: Q01DX009 (ip), vehicle: saline with Tween-80): 100 % of control

SMILES: C[C@@H]1CC[C@@]2(NC1)O[C@H]1C[C@H]3[C@@H]4CC=C5C[C@@H](O)CC[C@]5(C)[C@H]4CC[C@]3(C)[C@H]1[C@@H]2C
- T/C (dose: 50.0 mg/kg/injection, schedule: Q04DX003 (ip), vehicle: Klucel (hydroxypropylcellulose) (HPC)): 100 % of control
- T/C (dose: 50.0 mg/kg/injection, schedule: Q04DX003 (ip), vehicle: saline sonified): 110 % of control
- T/C (dose: 88.0 mg/kg/injection, schedule: Q01DX009 (ip), vehicle: saline with Tween-80): 86 % of control
- T/C [1]: 109 % of control
- T/C [8]: 100 % of control
- T/C (dose: 132.0 mg/kg/injection, schedule: Q01DX009 (ip), vehicle: saline with Tween-80): 118 % of control
- T/C [2]: 104 % of control
- T/C [9]: 105 % of control
- T/C (dose: 300.0 mg/kg/injection, schedule: Q01DX009 (ip), vehicle: saline with Tween-80): 95 % of control

SMILES: NCCCn1c2ccccc2c2cnccc21
- T/C (dose: 5.0 mg/kg/injection, schedule: Q01DX009 (ip), vehicle: water): 105 % of control
- T/C (dose: 10.0 mg/kg/injection, schedule: Q01DX009 (ip), vehicle: water): 94 % of control
- T/C (dose: 20.0 mg/kg/injection, schedule: Q01DX009 (ip), vehicle: water): 119 % of control
- T/C (dose: 25.0 mg/kg/injection, schedule: Q01DX009 (ip), vehicle: water): 91 % of control
- T/C (dose: 25.0 mg/kg/injection, schedule: Q04DX003 (ip), vehicle: water): 103 % of control
- T/C (dose: 40.0 mg/kg/injection, schedule: Q01DX009 (ip), vehicle: water): 119 % of control
- T/C (dose: 50.0 mg/kg/injection, schedule: Q04DX003 (ip), vehicle: water): 107 % of control
- T/C (dose: 100.0 mg/kg/injection, schedule: Q04DX003 (ip), vehicle: water): 99 % of control

SMILES: CCCN=C(N)c1ccc(N=C(N)c2ccc(N=C(N)c3ccc(C(N)=NCCC)cc3)cc2)cc1
- T/C (dose: 10.0 mg/kg/injection, schedule: Q01DX009 (ip), vehicle: saline): 154 % of control
- T/C (dose: 15.0 mg/kg/injection, schedule: Q01DX009 (ip), vehicle: saline): 190 % of control

SMILES: CCN1CCC2(CC1)COCc1ccccc12
- T/C (dose: 50.0 mg/kg/injection, schedule: Q04DX002 (ip), vehicle: saline with Tween-80): 107 % of control
- T/C [10]: 91 % of control
